In PubChem BioAssay (NCI):
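GI50 is the concentration that inhibits growth by half. At the TGI there is no net growth.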

Columns and labels:
Assay in all cases: NCI-60 cell line screen, 384-well format
[1] = system: SF-268 CNS
[2] = system: A498 renal
[3] = system: MOLT-4 leukemia
[4] = system: KM12 colon
[5] = system: NCI/ADR-RES ovarian
[6] = system: SF-539 CNS
[7] = system: SR leukemia
[8] = system: HOP-92 NSCLC
[9] = system: OVCAR-3 ovarian
[10] = system: DU-145 prostate
[11] = system: SF-295 CNS
[12] = system: NCI-H226 lung
[13] = system: K-562 leukemia
[14] = system: SK-MEL-28 melanoma
[15] = system: RXF 393 renal
[16] = system: A549 NSCLC
[17] = system: RPMI-8226 leukemia
[18] = system: SN12C renal
[19] = system: MCF7 breast
[20] = system: NCI-H23 lung
[21] = system: UO-31 renal
[22] = system: HCC-2998 colon
[23] = system: NCI-H522 lung
[24] = system: SW-620 colon
[25] = system: ACHN renal
[26] = system: NCI-H322M lung
[27] = system: HOP-62 NSCLC
[28] = system: MALME-3M melanoma
[29] = system: OVCAR-8 ovarian
[30] = system: HT29 colon
[31] = system: SK-MEL-2 melanoma
[32] = system: COLO 205 colon
[33] = system: SK-OV-3 ovarian
[34] = system: IGROV1 ovarian
[35] = system: MDA-MB-435 melanoma
[36] = system: T-47D breast
[37] = system: U251 glioblastoma
[38] = system: PC-3 prostate
[39] = system: MDA-MB-468 breast
[40] = system: SNB-19 CNS
[41] = system: OVCAR-5 ovarian
[42] = system: HL-60(TB) leukemia
[43] = system: UACC-257 melanoma
[44] = system: CCRF-CEM leukemia
[45] = system: SK-MEL-5 melanoma
[46] = system: LOX IMVI melanoma
[47] = system: CAKI-1 renal
[48] = system: NCI-H460 NSCLC
[49] = system: M14 melanoma
[50] = system: OVCAR-4 ovarian
[51] = system: UACC-62 melanoma
[52] = system: HCT-116 colon
[53] = system: 786-0 renal
[54] = system: HCT-15 colon
[55] = system: TK-10 renal

CC[C@H](NC(=O)[C@H](C)NC)C(=O)N1C[C@@H](O)C[C@H]1Cc1c(-c2[nH]c3cc(F)ccc3c2C[C@@H]2C[C@H](O)CN2C(=O)[C@H](CC)NC(=O)[C@H](C)NC)[nH]c2cc(F)ccc12 gave a GI50 [1] of 28.1 µM, a TGI [1] of 90.6 µM and a GI50 [2] greater than 100 µM. The TGI [2] was greater than 100 µM, the GI50 [3] was 16.4 µM and the TGI [3] was 30.2 µM. For the same compound, the GI50 [4] was 23.8 µM, the TGI [4] was 74.5 µM and the GI50 [5] was greater than 100 µM. The TGI [5] was greater than 100 µM, the GI50 [6] was 14.6 µM and the TGI [6] was 32.5 µM. It also gave a GI50 [7] of 3.4 µM, a TGI [7] of 19.5 µM and a GI50 [8] of 0.785 µM. It also gave a TGI [8] of 13.5 µM, a GI50 [9] of 17.9 µM and a TGI [9] greater than 100 µM. For the same compound, the GI50 [10] was 24.2 µM, the TGI [10] was greater than 100 µM and the GI50 [11] was 82 µM. It also gave a TGI [11] greater than 100 µM, a GI50 [12] greater than 100 µM and a TGI [12] greater than 100 µM. The GI50 [13] was 21.9 µM, the TGI [13] was 50.7 µM and the GI50 [14] was 86.3 µM. For the same compound, the TGI [14] was greater than 100 µM, the GI50 [15] was less than 0.01 µM and the TGI [15] was 0.0829 µM. For the same compound, the GI50 [16] was greater than 100 µM, the TGI [16] was greater than 100 µM and the GI50 [17] was 0.102 µM. For the same compound, the TGI [17] was 0.896 µM, the GI50 [18] was greater than 100 µM and the TGI [18] was greater than 100 µM. For the same compound, the GI50 [19] was 15.1 µM, the TGI [19] was 31.4 µM and the GI50 [20] was 0.0611 µM. It also gave a TGI [20] of 13.1 µM, a GI50 [21] greater than 100 µM and a TGI [21] greater than 100 µM. The GI50 [22] was 16.6 µM, the TGI [22] was 49.8 µM and the GI50 [23] was 0.0544 µM. It also gave a TGI [23] of 12.9 µM, a GI50 [24] of 57 µM and a TGI [24] greater than 100 µM. The GI50 [25] was greater than 100 µM, the TGI [25] was greater than 100 µM and the GI50 [26] was greater than 100 µM. For the same compound, the TGI [26] was greater than 100 µM, the GI50 [27] was 0.555 µM and the TGI [27] was 8.66 µM. The GI50 [28] was 0.0143 µM, the TGI [28] was 0.132 µM and the GI50 [29] was 17 µM. For the same compound, the TGI [29] was greater than 100 µM, the GI50 [30] was 16.4 µM and the TGI [30] was 39.8 µM. The GI50 [31] was less than 0.01 µM, the TGI [31] was less than 0.01 µM and the GI50 [32] was 37 µM. For the same compound, the TGI [32] was greater than 100 µM, the GI50 [33] was less than 0.01 µM and the TGI [33] was less than 0.01 µM. It also gave a GI50 [34] greater than 100 µM, a TGI [34] greater than 100 µM and a GI50 [35] of 0.0982 µM. It also gave a TGI [35] greater than 100 µM, a GI50 [36] greater than 100 µM and a TGI [36] greater than 100 µM. The GI50 [37] was 18 µM, the TGI [37] was 35.7 µM and the GI50 [38] was 63 µM. It also gave a TGI [38] greater than 100 µM, a GI50 [39] of less than 0.01 µM and a TGI [39] of 0.637 µM. The GI50 [40] was greater than 100 µM, the TGI [40] was greater than 100 µM and the GI50 [41] was greater than 100 µM. For the same compound, the TGI [41] was greater than 100 µM, the GI50 [42] was less than 0.01 µM and the TGI [42] was less than 0.01 µM. The GI50 [43] was 20 µM, the TGI [43] was 69.3 µM and the GI50 [44] was 0.028 µM. The TGI [44] was 16.8 µM, the GI50 [45] was 0.112 µM and the TGI [45] was 0.438 µM. It also gave a GI50 [46] of 20.1 µM, a TGI [46] of 35.9 µM and a GI50 [47] greater than 100 µM. For the same compound, the TGI [47] was greater than 100 µM, the GI50 [48] was 18 µM and the TGI [48] was 38.1 µM. It also gave a GI50 [49] greater than 100 µM, a TGI [49] greater than 100 µM and a GI50 [50] of less than 0.01 µM. The TGI [50] was less than 0.01 µM, the GI50 [51] was greater than 100 µM and the TGI [51] was greater than 100 µM. The GI50 [52] was 35 µM, the TGI [52] was greater than 100 µM and the GI50 [53] was greater than 100 µM. The TGI [53] was greater than 100 µM, the GI50 [54] was greater than 100 µM and the TGI [54] was greater than 100 µM. The GI50 [55] was greater than 100 µM and the TGI [55] was greater than 100 µM.
